Tests used:
[1] = molecular target: T1, PCMT1 (protein-L-isoaspartate (D-aspartate) O-methyltransferase) (Homo sapiens, UniProt P22061); assay: Affinity chromatography on immobilized compound with urea step elution, LC/MS peak intensity ratio; assay type: binding; details: for peak intensity ratio (peak area of the labeled protein/peak area of the non-labeled protein): HCT116 extract
T1 construct: Insoluble fractions were removed by centrifugation to prepare soluble fractions; endogenous in cells; host or cells: HCT116
Method: (§1) About 10 mg of the compound represented by formula (1):
(§2) [drawing 1] was dissolved in 4 mL of tetrahydrofuran (THF) and 4 mL of methanol (MeOH), and 4 mL of water was added thereto.
(§3) 6 mL of the resultant solution was diluted with 18 mL of THF/MeOH/Water=1/1/1 (v/v/v), and was added to 25 mL of Affi-gel 10 (produced by BioRad, Cat No. 153-6099), which had been washed with THF/MeOH/Water=1/1/1 (v/v/v) beforehand.
(§4) To the resultant substance, 100 μL of triethylamine (produced by Tokyo Chemical Industry Co., Ltd., Cat No. T0424) was added thereto and incubated at room temperature for 2 hours. Then, 500 μL of 2-aminoethanol (produced by Tokyo Chemical Industry Co., Ltd., Cat No. A0297) was added thereto and incubated at room temperature for 2 hours. The resultant gel was fully washed with THF/MeOH/Water=1/1/1 (v/v/v), and was stored at 4° C. after replacement with a methanol solution. The resultant gel was set to be used as an affinity gel. By this reaction, the compound represented by formula (1) was bound at a ratio of about 0.2 mg for 1 mL of gel. A column was filled with about 0.9 ml of the produced affinity gel. Thus, an affinity chromatography column was produced.
(§5) Human colon glandular cancer cell line HCT116 (ATCC) was cultured. Used as a medium was RPMI-1640 (Sigma, R-7130) containing 10% fetal calf serum (MOREGATE, BATCH 32300102), 100 U/ml of penicillin G; and 100 μg/ml of streptomycin (Invitrogen, 15140-122). As for the RPMI-1640 medium, a powder medium which contains none of L-glutamine, L-lysine, L-methionine, L-leucine, and sodium hydrogen carbonate was selected. Then, components absent in the medium were added. The absent components were added as follows. L-glutamine (produced by Sigma, G-8540), L-lysine (produced by Sigma, L-9037), L-methionine (produced by Sigma, M-5308), and sodium hydrogen carbonate (Wako Pure Chemical Industries, Ltd., 191-01305) were added in 0.3 g/L, 0.04 g/L, 0.015 g/L, and 2 g/L, respectively; and then naturally-occurring L-leucine and L-leucine labeled with a stable isotope ^13C (six) (Cambridge Isotope Laboratories, CLM-2262) were separately added in 0.05 g/L. Each medium thus prepared was used to culture cells in 5% CO2 at 37° C. The cells obtained by such culturing were used in the following tests as cells cultured in a naturally-occurring medium and cells cultured in a stable isotope medium, respectively.
(§6) Cells cultured in the naturally-occurring medium were provided in an amount corresponding to ten 15-cm diameter plates. Cells cultured in the stable isotope medium were provided in an amount corresponding to ten 15-cm diameter plates. The cells were collected. The cells were solubulized with about 2 ml of M-PER (PIERCE, 78501) per 15-cm diameter plate. Insoluble fractions were removed by centrifugation to prepare soluble fractions. The soluble fractions thus obtained were set to be used as a protein extract liquid metabolically labeled with a stable isotope and a protein extract liquid not metabolically labeled with a stable isotope, respectively. To these protein extract liquids (about 20 ml each), a quadruple amount of PBS was added (final amount: about 100 ml each).
(§7) Next, about 0.9 ml of affinity gel was put into an open column, and a diluted protein extract liquid metabolically labeled with a stable isotope was added to the open column from above and was naturally dropped. Then, 10 ml of PBS containing 1 M NaCl was flown to this column. Next, 7 ml of PBS containing 1 M urea and 0.01% CHAPS, 7 ml of PBS containing 2 M urea and 0.01% CHAPS, 7 ml of PBS containing 4 M urea and 0.01% CHAPS, and 7 ml of PBS containing 8 M urea and 0.01% CHAPS were sequentially flown, and the eluted fractions were collected (4 fractions in total).
(§8) In parallel with the above operation, a diluted protein extract liquid not metabolically labeled with a stable isotope was added to 0.9 ml of affinity gel from above and was naturally dropped. Then, 10 ml of PBS containing 1 M NaCl was flown to this column. […]

[2] = molecular target: T2, AHCY (S-adenosylhomocysteine hydrolase) (Homo sapiens, UniProt P23526); assay: as above; assay type: binding; details: for peak intensity ratio (peak area of the labeled protein/peak area of the non-labeled protein): HCT116 extract
T2 construct: Insoluble fractions were removed by centrifugation to prepare soluble fractions; endogenous in cells; host or cells: HCT116
T2 sequence (P23526 2-432 limits assumed): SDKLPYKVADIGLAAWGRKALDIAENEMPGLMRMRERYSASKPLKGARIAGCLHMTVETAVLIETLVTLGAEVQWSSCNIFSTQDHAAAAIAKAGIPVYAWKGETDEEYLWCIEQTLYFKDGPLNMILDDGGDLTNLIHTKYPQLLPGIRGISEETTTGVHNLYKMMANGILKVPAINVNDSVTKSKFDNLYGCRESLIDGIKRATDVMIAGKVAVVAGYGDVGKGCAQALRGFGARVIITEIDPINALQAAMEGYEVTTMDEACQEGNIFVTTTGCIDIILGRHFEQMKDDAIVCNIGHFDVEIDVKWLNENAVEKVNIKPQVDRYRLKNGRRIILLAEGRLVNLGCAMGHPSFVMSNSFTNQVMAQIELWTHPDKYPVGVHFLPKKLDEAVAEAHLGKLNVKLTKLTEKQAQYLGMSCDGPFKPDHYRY
Method: as §1, §2, §3, §4, §5, §6, §7, §8

[3] = molecular target: T3, SPRY4 (sprouty homolog 4) (Homo sapiens, UniProt Q9C004); assay: as above; assay type: binding; details: for peak intensity ratio (peak area of the labeled protein/peak area of the non-labeled protein): HCT116 extract
T3 construct: Insoluble fractions were removed by centrifugation to prepare soluble fractions; endogenous in cells; host or cells: HCT116
T3 sequence (Q9C004 1-299): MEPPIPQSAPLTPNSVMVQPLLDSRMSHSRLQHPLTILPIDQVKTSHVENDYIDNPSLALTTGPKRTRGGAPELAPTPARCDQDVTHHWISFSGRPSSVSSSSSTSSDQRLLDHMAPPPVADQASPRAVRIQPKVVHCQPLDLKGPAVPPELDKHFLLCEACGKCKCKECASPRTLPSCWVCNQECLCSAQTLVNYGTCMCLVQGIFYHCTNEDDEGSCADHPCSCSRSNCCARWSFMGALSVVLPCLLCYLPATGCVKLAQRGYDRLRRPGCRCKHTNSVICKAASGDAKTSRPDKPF
Method: as §1, §2, §3, §4, §5, §6, §7, §8

[4] = molecular target: T4, MTAP (5′-methylthioadenosine phosphorylase) (Homo sapiens, UniProt Q13126); assay: as above; assay type: binding; details: for peak intensity ratio (peak area of the labeled protein/peak area of the non-labeled protein): HCT116 extract
T4 construct: Insoluble fractions were removed by centrifugation to prepare soluble fractions; endogenous in cells; host or cells: HCT116
T4 sequence (Q13126 1-283): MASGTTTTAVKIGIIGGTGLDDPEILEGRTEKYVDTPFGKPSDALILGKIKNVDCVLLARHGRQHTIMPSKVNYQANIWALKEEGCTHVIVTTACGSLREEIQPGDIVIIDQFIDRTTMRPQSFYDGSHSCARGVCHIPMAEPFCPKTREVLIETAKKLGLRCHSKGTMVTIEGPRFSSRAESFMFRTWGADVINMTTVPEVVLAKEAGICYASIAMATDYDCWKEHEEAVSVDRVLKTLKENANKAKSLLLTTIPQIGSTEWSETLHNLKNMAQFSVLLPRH
Method: as §1, §2, §3, §4, §5, §6, §7, §8

[5] = tested on: proteins of HCT116 cell extract (AHCY, PCMT1, OS9, SPRY4); assay: Ranking of binding ability of proteins to the immobilized compound; design: species or system Human; details: from highest-peak fraction and from ratios in the 8 M urea fraction
Method: as §7
In parallel with the above operation, a diluted protein extract liquid not metabolically labeled with a stable isotope was added to 0.9 ml of affinity gel from above and was naturally dropped. Then, 10 ml of PBS containing 1 M NaCl was flown to this column. Next, 12 ml of PBS containing 8 M urea and 0.01% CHAPS was flown, and the eluted fractions were collected to be used as an internal standard fraction.
3 ml of the internal standard fraction was added to each of the four fractionated samples and mixed together. […]
Quantitation was to be performed at the peak of the peptides containing leucine. […] Peaks forming a pair were found, and the peak intensity ratio thereof was automatically calculated. In this manner, proteins were identified and the peak intensity ratio was calculated using the constructed software. […]

[6] = tested on: OS9 (amplified in osteosarcoma isoform 1-4 precursor); assay: Affinity chromatography on immobilized compound with urea step elution, LC/MS peak intensity ratio; assay type: binding, Human; details: for peak intensity ratio (peak area of the labeled protein/peak area of the non-labeled protein): HCT116 extract
Method: as §1, §2, §3, §4, §5, §6
Next, about 0.9 ml of affinity gel was put into an open column, and a diluted protein extract liquid metabolically labeled with a stable isotope was added to the open column from above and was naturally dropped. Then, 10 ml of PBS containing 1 M NaCl was flown to this column. […]

T1 sequence (P22061 whole entry): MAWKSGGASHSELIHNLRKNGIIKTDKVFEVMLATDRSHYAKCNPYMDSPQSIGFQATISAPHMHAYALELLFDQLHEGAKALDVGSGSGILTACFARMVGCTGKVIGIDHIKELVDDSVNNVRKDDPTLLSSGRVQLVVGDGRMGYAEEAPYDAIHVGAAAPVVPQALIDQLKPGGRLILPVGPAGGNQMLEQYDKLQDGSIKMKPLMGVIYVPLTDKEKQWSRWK

peak intensity ratio (peak area of the labeled protein/peak area of the non-labeled protein) ([1]; 1M Urea fraction): 1.14
peak intensity ratio (peak area of the labeled protein/peak area of the non-labeled protein) ([1]; 2M Urea fraction): 1.57
peak intensity ratio (peak area of the labeled protein/peak area of the non-labeled protein) ([1]; 4M Urea fraction): 2.52
peak intensity ratio (peak area of the labeled protein/peak area of the non-labeled protein) ([1]; 8M Urea fraction): 1.02
fraction with the highest peak ([1]; elution with 1, 2, 4, 8 M urea): 4 M urea fraction
peak intensity ratio (peak area of the labeled protein/peak area of the non-labeled protein) ([2]; 1M Urea fraction): 0.63
peak intensity ratio (peak area of the labeled protein/peak area of the non-labeled protein) ([2]; 2M Urea fraction): 0.99
peak intensity ratio (peak area of the labeled protein/peak area of the non-labeled protein) ([2]; 4M Urea fraction): 1.88
peak intensity ratio (peak area of the labeled protein/peak area of the non-labeled protein) ([2]; 8M Urea fraction): 3.27
fraction with the highest peak ([2]; elution with 1, 2, 4, 8 M urea): 8 M urea fraction
peak intensity ratio (peak area of the labeled protein/peak area of the non-labeled protein) ([3]; 1M Urea fraction): 3.70
peak intensity ratio (peak area of the labeled protein/peak area of the non-labeled protein) ([3]; 2M Urea fraction): 1.17
peak intensity ratio (peak area of the labeled protein/peak area of the non-labeled protein) ([3]; 4M Urea fraction): 0.83
peak intensity ratio (peak area of the labeled protein/peak area of the non-labeled protein) ([3]; 8M Urea fraction): 0.67
fraction with the highest peak ([3]; elution with 1, 2, 4, 8 M urea): 1 M urea fraction
peak intensity ratio (peak area of the labeled protein/peak area of the non-labeled protein) ([4]; 1M Urea fraction): 0.77
peak intensity ratio (peak area of the labeled protein/peak area of the non-labeled protein) ([4]; 2M Urea fraction): 0.78
peak intensity ratio (peak area of the labeled protein/peak area of the non-labeled protein) ([4]; 4M Urea fraction): 0.71
peak intensity ratio (peak area of the labeled protein/peak area of the non-labeled protein) ([4]; 8M Urea fraction): 0.88
peak intensity ratio ([4]; all the four urea fractions): about 0.8
Compound: NCc1ccc(S(=O)(=O)Nc2cccc3c(Cl)c[nH]c23)cc1 [formula (1)]
binding ability of the proteins to the compound, ordered from highest to lowest [5]: AHCY, PCMT1, OS9 and SPRY4
peak intensity ratio (peak area of the labeled protein/peak area of the non-labeled protein) ([6]; 1M Urea fraction): 1.24
peak intensity ratio (peak area of the labeled protein/peak area of the non-labeled protein) ([6]; 2M Urea fraction): 3.57
peak intensity ratio (peak area of the labeled protein/peak area of the non-labeled protein) ([6]; 4M Urea fraction): 1.62
peak intensity ratio (peak area of the labeled protein/peak area of the non-labeled protein) ([6]; 8M Urea fraction): 0.73
fraction with the highest peak ([6]; elution with 1, 2, 4, 8 M urea): 2 M urea fraction
